Assay results from ChEMBL document CHEMBL5143531, “Towards multi-target antidiabetic agents: In vitro and in vivo evaluation of 3,5-disubstituted indolin-2-one derivatives as novel α-glucosidase inhibitors” (Bioorg Med Chem Lett, 2022).

Legend:
Saccharomyces cerevisiae [1] = experiment: Inhibition of yeast alpha-glucosidase at 100 uM
[2] = Inhibition of yeast alpha-glucosidase; set-up: species or system Saccharomyces cerevisiae
Rattus norvegicus [3] = experiment: Anti-hyperglycemic activity in Wistar rat assessed as reduction in plasma glucose AUC (0 to 120 mins) at 5 mg/kg, po followed by maltose load by oral maltose tolerance test; type: functional
Rattus norvegicus [4] = experiment: Anti-hyperglycemic activity in Wistar rat assessed as reduction in plasma glucose AUC (0 to 120 mins) at 5 mg/kg, po followed by sucrose load by oral sucrose tolerance test; type: functional
Rattus norvegicus [5] = experiment: Anti-hyperglycemic activity in Wistar rat assessed as reduction in plasma glucose AUC (0 to 120 mins) at 5 mg/kg, po followed by glucose load by oral glucose tolerance test; type: functional
Saccharomyces cerevisiae [6] = experiment: Potency index, ratio of acarbose IC50 to test compound IC50 for inhibition of yeast alpha-glucosidase
[7] = Inhibition of yeast alpha-glucosidase using p-nitrophenyl glycoside as substrate preincubated with enzyme for 30 mins followed by substrate addition for 60 mins by spectrophotometric analysis; set-up: species or system Saccharomyces cerevisiae
Rattus norvegicus [8] = experiment: Anti-hyperglycemic activity in Wistar rat assessed as reduction in plasma glucose AUC (0 to 120 mins) at 10 mg/kg, po followed by sucrose load by oral sucrose tolerance test; type: functional
Rattus norvegicus [9] = experiment: Anti-hyperglycemic activity in Wistar rat assessed as reduction in plasma glucose AUC (0 to 120 mins) at 10 mg/kg, po followed by glucose load by oral glucose tolerance test; type: functional
[10] = Inhibition of yeast alpha-glucosidase using p-nitrophenyl glycoside as substrate preincubated with enzyme for 15 mins followed by substrate addition for 30 mins; set-up: species or system Saccharomyces cerevisiae
[11] = target: Glycogen synthase kinase-3 beta (Homo sapiens, UniProt P49841)
Chain of Glycogen synthase kinase-3 beta (P49841 whole entry): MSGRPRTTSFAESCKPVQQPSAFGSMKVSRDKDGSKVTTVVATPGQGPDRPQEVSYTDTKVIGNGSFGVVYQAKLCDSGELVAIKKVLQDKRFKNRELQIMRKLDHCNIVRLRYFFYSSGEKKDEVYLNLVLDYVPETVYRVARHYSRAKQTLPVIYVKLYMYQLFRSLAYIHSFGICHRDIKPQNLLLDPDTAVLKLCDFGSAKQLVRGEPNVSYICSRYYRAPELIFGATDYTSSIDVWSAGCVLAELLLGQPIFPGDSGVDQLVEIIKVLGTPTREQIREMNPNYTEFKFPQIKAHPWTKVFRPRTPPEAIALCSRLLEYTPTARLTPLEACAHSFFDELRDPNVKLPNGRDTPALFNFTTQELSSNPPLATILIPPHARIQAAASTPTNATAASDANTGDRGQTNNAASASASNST

Row | inhibition (Saccharomyces cerevisiae [1]) [%] | Structure (SMILES) | further results
1 | 46.6 | C[C@H]1O[C@H](O[C@H]2[C@H](O)[C@@H](O)[C@@H](O[C@H]3[C@H](O)[C@@H](O)C(O)O[C@@H]3CO)O[C@@H]2CO)[C@H](O)[C@@H](O)[C@@H]1N[C@H]1C=C(CO)[C@@H](O)[C@H](O)[C@H]1O (stereo partly specified) [ACARBOSE] | IC50 [2]: 436 µM; inhibition in vivo at 5 mg/kg (Rattus norvegicus [3]): 37.2%
2 | -10 | O=C1Nc2ccccc2C1=Cc1ccccn1 | –
3 | -3.94 | Cc1ccc(C(=O)CC2(O)C(=O)Nc3ccc(Br)cc32)cc1 (stereo unspecified) | –
4 | 75.5 | Cc1nn(-c2ccccc2)c(C)c1C=C1C(=O)Nc2ccccc21 (single isomer, unassigned) | IC50 [2]: 153 µM
5 | 57.9 | COC(=O)Nc1ccc2c(c1)C(=Cc1ccc(O)cc1)C(=O)N2 | IC50 [2]: 76.7 µM
6 | 4.75 | COc1cc(NC(C)=O)c2c(c1)C(CC#N)(OC(C)=O)C(=O)N2 (stereo unspecified) | –
7 | 65.4 | COc1ccc2c(c1)C(O)(CC(=O)c1ccc(C)cc1)C(=O)N2 (stereo unspecified) | IC50 [2]: 60 µM
8 | 2.08 | O=C1Nc2ccccc2C1=Cc1cccnc1 (mixture of isomers) | –
9 | 33.2 | CN1C(=O)C(=Cc2ccc(O)cc2)c2ccccc21 (mixture of isomers) | –
10 | 103 | COC(=O)Nc1ccc2c(c1)C(=Cc1ccc([N+](=O)[O-])cc1)C(=O)N2 (mixture of isomers) | IC50 [2]: 6.78 µM; inhibition in vivo at 5 mg/kg (Rattus norvegicus [3]): 42.1%; inhibition in vivo at 5 mg/kg (Rattus norvegicus [4]): 28.8%; inhibition in vivo at 5 mg/kg (Rattus norvegicus [5]): 12.3%; Ratio IC50 (Saccharomyces cerevisiae [6]): 80
11 | -3.81 | O=C1Nc2ccc(Br)cc2C1=CC(=O)c1ccco1 (mixture of isomers) | –
12 | – | O=C(CSc1nnc2c(n1)[nH]c1ccccc12)c1cccc(O)c1 | IC50 [7]: 2.5 µM
13 | 14.9 | CC(=O)Nc1ccc2c(c1)C(=Cc1cccc(O)c1)C(=O)N2 (single isomer, unassigned; isomer 1) | –
14 | -1.71 | O=C1Nc2ccc([N+](=O)[O-])cc2C1=Cc1ccncc1 (mixture of isomers) | –
15 | -3.17 | O=C1Nc2ccccc2C1=Cc1ccncc1 (mixture of isomers) | –
16 | 12.1 | O=C1Nc2ccccc2C12CC2c1ccccn1 (stereo unspecified) | –
17 | 61.2 | CN1C(=O)C2(CC2C#N)c2cc(Br)ccc21 (stereo unspecified) | –
18 | -5.09 | CC(=O)Nc1ccc2c(c1)C(CC(=O)O)(OC(C)=O)C(=O)N2 (stereo unspecified) | –
19 | 81.6 | O=C1Nc2ccccc2C1=Cc1ccc([N+](=O)[O-])cc1 (mixture of isomers) | IC50 [2]: 62.4 µM
20 | – | N#C[C@@H]1CCCN1C(=O)CNC12CC3CC(CC(O)(C3)C1)C2 [VILDAGLIPTIN] | inhibition in vivo at 10 mg/kg (Rattus norvegicus [8]): 17.9%; inhibition in vivo at 10 mg/kg (Rattus norvegicus [9]): 28.6%
21 | – | O=C(N/N=C/c1cc(O)c(O)c(O)c1)c1cc2ccccc2[nH]1 | IC50 [10]: 2.3 µM
22 | 11.4 | O=C1Nc2ccccc2C1=Cc1cn[nH]c1C(=O)O (mixture of isomers) | –
23 | -9.74 | COc1cc(C=C2C(=O)Nc3ccc(NC(C)=O)cc32)cc(OC)c1OC | –
24 | -3.64 | Nc1ccc(CC2C(=O)Nc3ccccc32)cc1 (stereo unspecified) | –

Row | inhibition (Saccharomyces cerevisiae [1]) [%] | Structure (SMILES) | further results
25 | -7.99 | O=C1Nc2ccc([N+](=O)[O-])cc2C1=Cc1cccnc1 | –
26 | 8.9 | O=C1Nc2ccc([N+](=O)[O-])cc2C1=CC(=O)c1ccco1 (single isomer, unassigned; isomer 1) | –
27 | 21.6 | O=C1Nc2ccccc2C1=Cc1ccc(O)cc1 (single isomer, unassigned; isomer 1) | –
28 | -0.73 | O=C1Nc2ccc(Br)cc2C1=Cc1ccncc1 (mixture of isomers) | –
29 | 57.9 | O=C1Nc2ccc(NC(=O)c3ccco3)cc2C1=Cc1ccc(O)cc1 (mixture of isomers) | –
30 | -4.01 | Cc1ccc(C(=O)CC2(O)C(=O)Nc3ccccc32)cc1 (stereo unspecified) | –
31 | -1.25 | O=C1Nc2ccccc2C1=Cc1cccs1 (mixture of isomers) | –
32 | 33.6 | O=C1Nc2ccc([N+](=O)[O-])cc2C1=Cc1cn[nH]c1C(=O)O (mixture of isomers) | –
33 | 52.2 | Cc1ccc(C(=O)CC2(O)C(=O)Nc3ccc(NC(=O)c4ccccc4)cc32)cc1 (stereo unspecified) | –
34 | -3.83 | COc1ccc(C(=O)CC2(O)C(=O)Nc3ccc(Br)cc32)cc1 (stereo unspecified) | –
35 | 10.7 | O=C1Nc2ccc(Br)cc2C1=Cc1cccnc1 | –
36 | 14.4 | CCC(=O)Nc1cc(NC(=O)CC)c2c(c1)C(CC#N)(OC(=O)CC)C(=O)N2 (stereo unspecified) | –
37 | 81.7 | COC(=O)Nc1ccc2c(c1)C(=Cc1ccc(Br)cc1)C(=O)N2 (mixture of isomers) | IC50 [2]: 68.9 µM
38 | 15.5 | COc1ccc2c(c1)C(=CC#N)C(=O)N2Cc1ccccc1 (single isomer, unassigned; isomer 1) | –
39 | 12.6 | Cc1n[nH]c(C)c1C=C1C(=O)Nc2ccccc21 (mixture of isomers) | –
40 | 37.5 | O=C1Nc2ccccc2C1=CC(=O)c1ccco1 (mixture of isomers) | –
41 | 104 | O=C1Nc2ccc(NC(=O)c3ccccc3)cc2C1=Cc1ccc([N+](=O)[O-])cc1 (mixture of isomers) | IC50 [2]: 56.6 µM
42 | 19.9 | CN1C(=O)C(=Cc2ccccn2)c2ccccc21 | –
43 | 29.2 | N#CCC1(O)C(=O)Nc2ccc(NC(=O)c3ccccc3)cc21 (stereo unspecified) | –
44 | 81.1 | COc1ccc2c(c1)C(=CC(=O)O)C(=O)N2 (mixture of isomers) | IC50 [2]: 26.4 µM
45 | 34.5 | Cn1cc(C=C2C(=O)Nc3ccccc32)cn1 | –
46 | 31.8 | COc1cc(C=C2C(=O)Nc3ccc(NC(=O)c4ccco4)cc32)cc(OC)c1OC (single isomer, unassigned; isomer 1) | –
47 | 40.8 | Cc1[nH]ncc1C=C1C(=O)Nc2ccccc21 (mixture of isomers) | –
48 | -1.49 | O=C1Nc2ccc(Br)cc2C1=Cc1ccccn1 | –

Row | Structure (SMILES) | inhibition (Saccharomyces cerevisiae [1]) [%] | further results
49 | O=C1Nc2ccc(NC(=O)c3ccccc3)cc2C1=Cc1ccc(O)cc1 (mixture of isomers) | 92.3 | IC50 [2]: 136 µM; IC50 [11]: 4.34 µM
